Results on 13 molecules are retold here after patent US20210127719A1, “AROMATIC MIXTURE FOR REDUCING THE ODOR OR TASTE OF BIOGENIC AMINES” (SYMRISE AG, priority 2016, published 2021).

The nature of assay [1]: Fish sauce triangle test with odor description. The text has this: The panelists received the following instruction: Please smell the three samples and mark the sensorially deviating samples with a cross. In any case, one of the samples must be ticked, even if no difference can be noted.
Assay [2] in a line: Panel rating of odor attributes of soy sauce containing biogenic amines, with and without added compound. Particulars: panelists n=6-8, scale 0-10, versus product alone. The text has this: The panelists (n=6-8) rate the attributes animalistic—fishy, metallic as well as woody, sweet, flowery and terpenic, herbal on an unstructured scale from 0 (no taste)—10 (strong taste). Thereby, the order is arbitrary and not known by the panelists beforehand.

The mark [3] stands for this setting: dosage of the compound 0.5 mg/kg.
Setting [4] is: dosage of the compound 0.1 mg/kg.

As to `CC1=CC(C)C(C=O)C(C)C1` (centres unmarked) [Isocyclocitral], the Odor description result in assay [1] (dosage of the compound 1 mg/kg) is “bready, rounded,”.
On to `C/C=C/C=C1/C(C)=CC(=O)CC1(C)C` [Tabanon, (4E)-4-[(E)-but-2-enylidene]-3,5,5-trimethyl-cyclohex-2-en-1-one], for which, in assay [2] (dosage of the compound 1 mg/kg), the “Odor description (indication of relative change in percent) Animalistic-fishy, metallic” value is −18.8%; the “Odor description (indication of relative change in percent) Terpenig, herbal” value is reported as −8.2%; the “Odor description (indication of relative change in percent) Woody, sweet, flowery” value was found to be 13.7%. For the same molecule, the Odor description result in assay [1] (setting [3]) is recorded as “bready, less”.
Take `CC(=O)/C=C/C1C(C)=CCCC1(C)C` (stereo not drawn) [Alpha ionone, (E)-4-(2,6,6-trimethylcyclohex-2-en-1-yl)but-3-en-2-one]: in assay [2] (dosage of the compound 1 mg/kg), the “Odor description (indication of relative change in percent) Animalistic-fishy, metallic” value is given as −20.5%; the “Odor description (indication of relative change in percent) Terpenig, herbal” value is −7.6%; the “Odor description (indication of relative change in percent) Woody, sweet, flowery” value is recorded as −4.4%. Also, in assay [1] (setting [4]), the Odor description result was “bready, earthy,”.
On to `CC1CCc2nccnc21` (centres unmarked) [5-Methyl-6,7-dihydrocyclopentapyrazine, 5-methyl-6,7-dihydro-5H-cyclopenta[b]pyrazine], for which, in assay [2] (setting [3]), the “Odor description (indication of relative change in percent) Animalistic-fishy, metallic” value is −7.4%; the “Odor description (indication of relative change in percent) Terpenig, herbal” value is listed as −5.2%; the “Odor description (indication of relative change in percent) Woody, sweet, flowery” value was −10.0%. Also, the Odor description entry in assay [1] (dosage of the compound 0.05 mg/kg) is on record as “not fishy, less silage notes,”.
As to `CCCC(O)CCC1C(C)CCCC1(C)C` (centres unmarked) [Timberol, 1-(2,2,6-trimethylcyclohexyl)hexan-3-ol], in assay [2] (dosage of the compound 1 mg/kg), the “Odor description (indication of relative change in percent) Animalistic-fishy, metallic” value is reported as −26.5%; the “Odor description (indication of relative change in percent) Terpenig, herbal” value is on record as −3.8%; the “Odor description (indication of relative change in percent) Woody, sweet, flowery” value is listed as 27.9%.
Turning to `CC1=CCCC(C)(C)C1/C=C/C(C)O` (stereo not drawn) [Alpha-Ionol, (E)-4-(2,6,6-trimethylcyclohex-2-en-1-yl)but-3-en-2-ol], the Odor description result in assay [1] (setting [3]) is recorded as “bready, earthy, rounded”.
In the case of `C/C=C/C(=O)C1C(C)=CCCC1(C)C` (stereo not drawn) [Alpha-damascone, (E)-1-(2,6,6-trimethylcyclohex-2-en-1-yl)but-2-en-1-one], the Odor description entry in assay [1] (dosage of the compound 0.2 mg/kg) is “cocoa note, sweet,”.
`CC1=CC=C2C(C)(C)CCCC2(C)O1` (centres unmarked) [Cycloionone, 2,5,5,8a-tetramethyl-7,8-dihydro-6H-chromene]: in assay [2] (setting [3]), the “Odor description (indication of relative change in percent) Animalistic-fishy, metallic” value amounted to 2.3%; the “Odor description (indication of relative change in percent) Terpenig, herbal” value stood at 19.6%; the “Odor description (indication of relative change in percent) Woody, sweet, flowery” value was determined as 33.8%.
As for `CC(=O)/C=C/C1=C(C)CCCC1(C)C` [Beta ionone, (E)-4-(2,6,6-trimethylcyclohex-1-en-1-yl)but-3-en-2-one], in assay [2] (dosage of the compound 2 mg/kg), the “Odor description (indication of relative change in percent) Animalistic-fishy, metallic” value is 2.4%; the “Odor description (indication of relative change in percent) Terpenig, herbal” value is given as −28.9%; the “Odor description (indication of relative change in percent) Woody, sweet, flowery” value was determined as 51.9%. Moreover, the Odor description entry in assay [1] (setting [3]) was “less silage notes,”.
As to `CCc1ncc(C)nc1CC` [2,3-Diethyl-5-methyl-pyrazine, 2,3-diethyl-5-methyl-pyrazine], the Odor description result in assay [1] (setting [4]) is listed as “metallic, dusty,”.
Consider `CC(=O)/C=C/C12OC1(C)CCCC2(C)C` (stereo not drawn) [Beta epoxyionone, (E)-4-(1,5,5-trimethyl-7-oxabicyclo[4.1.0]heptan-6-yl)but-3-en-2-one], for which, in assay [2] (setting [3]), the “Odor description (indication of relative change in percent) Animalistic-fishy, metallic” value is recorded as −5.4%; the “Odor description (indication of relative change in percent) Terpenig, herbal” value is given as 21.1%; the “Odor description (indication of relative change in percent) Woody, sweet, flowery” value was found to be 22.8%.
With `CC(=O)CCC1=C(C)CCCC1(C)C` [Dihydroionone], in assay [2] (setting [3]), the “Odor description (indication of relative change in percent) Animalistic-fishy, metallic” value is recorded as 8.9%; the “Odor description (indication of relative change in percent) Terpenig, herbal” value is given as −8.3%; the “Odor description (indication of relative change in percent) Woody, sweet, flowery” value turned out to be 9.5%.
In the case of `CCC(O)CCC1C(C)CCCC1(C)C` (centres unmarked) [Madranol, 1-(2,2,6-trimethylcyclohexyl)pentan-3-ol], in assay [2] (dosage of the compound 1 mg/kg), the “Odor description (indication of relative change in percent) Animalistic-fishy, metallic” value is recorded as −13.9%; the “Odor description (indication of relative change in percent) Terpenig, herbal” value is recorded as −6.0%; the “Odor description (indication of relative change in percent) Woody, sweet, flowery” value was found to be 6.6%.
